Data on one compound can be found in ChEMBL document CHEMBL4422680, “Synthesis, biological evaluation, and molecular docking study of novel allyl-retrochalcones as a new class of protein tyrosine phosphatase 1B inhibitors” (Bioorg Med Chem, 2019).

The source made the active and inactive calls. The rule behind the calls is not given here.

Data set [1] has as its target T1, Tyrosine-protein phosphatase non-receptor type 1 (Homo sapiens) (UniProt P18031).
T1 sequence (whole entry): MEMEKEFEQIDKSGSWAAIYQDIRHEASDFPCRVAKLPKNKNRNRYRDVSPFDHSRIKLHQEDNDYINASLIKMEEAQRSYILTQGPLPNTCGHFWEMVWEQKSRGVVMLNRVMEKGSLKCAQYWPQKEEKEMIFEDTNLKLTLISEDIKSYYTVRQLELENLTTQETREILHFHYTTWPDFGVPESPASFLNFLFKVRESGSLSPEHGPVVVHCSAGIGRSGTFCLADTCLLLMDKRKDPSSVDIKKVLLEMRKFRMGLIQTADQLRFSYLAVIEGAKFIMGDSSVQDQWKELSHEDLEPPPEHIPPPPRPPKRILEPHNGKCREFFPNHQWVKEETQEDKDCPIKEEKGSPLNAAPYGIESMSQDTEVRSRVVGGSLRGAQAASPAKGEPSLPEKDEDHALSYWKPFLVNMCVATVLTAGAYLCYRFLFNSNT
Briefly: Inhibition of PTP1B in human HepG2 cells assessed as suppression of PA-induced insulin resistance by measuring increase in IRS1 phosphorylation at 5 uM preincubated for 1 hr followed by PA-stimulation for 24 hrs and subsequent insulin measured by immunoblotting analysis. Format: cell-based. For orientation: A western blot detects proteins with antibodies after separation by electrophoresis.

The subject of data set [2] is Mus musculus. Briefly: Protection against hyperglycemia-induced liver injury in db/db mouse assessed as reduction in serum AKP level at 10 to 20 mg/kg, po administered every other day for 10 weeks measured post last dose. Format: functional, organism-based.
Data set [3] in a line: Drug uptake in Sprague-Dawley rat at 20 mg/kg, ig administered as single dose measured after 4 hrs by UPLC/MS/MS analysis. Format: ADME, organism-based. Particulars: in vivo, po.
Data set [4] deals with Mus musculus. The data set is described as follows: Protection against hyperglycemia-induced liver injury in db/db mouse assessed as reduction in size and number of liver lipid droplets at 10 to 20 mg/kg, po administered every other day for 10 weeks measured post last dose by hematoxylin and eosin staining based light microscopic analysis. Format: functional, organism-based.

A short description of data set [5]: Cmax in Sprague-Dawley rat at 2 mg/kg, iv administered as single dose by UPLC/MS/MS analysis. Type of data set: ADME, organism-based. Also noted: dose 2 mg/kg, route intravenous. Particulars: in vivo.
For data set [6], the target named is T1, Tyrosine-protein phosphatase non-receptor type 1 (Homo sapiens). The data set is described as follows: Inhibition of PTP1B in human HepG2 cells assessed as suppression of PA-induced insulin resistance by measuring increase in AKT phosphorylation at 10 uM preincubated for 1 hr followed by PA-stimulation for 24 hrs and subsequent insulin measured by immunoblotting analysis. Type of data set: cell-based.

Data set [7] in a line: AUC (0 to infinity) in Sprague-Dawley rat at 2 mg/kg, iv administered as single dose by UPLC/MS/MS analysis. Format: ADME, organism-based. Particulars: in vivo. Further details: dose 2 mg/kg, route intravenous, time infinity.
The subject of data set [8] is Mus musculus. Briefly: Protection against hyperglycemia-induced liver injury in db/db mouse assessed as reduction in serum total cholesterol level at 10 to 20 mg/kg, po administered every other day for 10 weeks measured post last dose. Type of data set: functional, organism-based.
The nature of data set [9]: AUC (0 to infinity) in Sprague-Dawley rat at 20 mg/kg, ig administered as single dose by UPLC/MS/MS analysis. Type of data set: ADME, organism-based. Further details: dose 20 mg/kg, time infinity, route […]. As to conditions: in vivo, po.
For data set [10], the system named is Mus musculus. Briefly: Protection against hyperglycemia-induced liver injury in db/db mouse assessed as increase in IRS1 phosphorylation in liver at 10 to 20 mg/kg, po administered every other day for 10 weeks measured post last dose by immunoblotting analysis. Format: functional, organism-based.
Data set [11] is described as follows: Tmax in Sprague-Dawley rat at 20 mg/kg, ig administered as single dose by UPLC/MS/MS analysis. Particulars: in vivo, po. Type of data set: ADME, organism-based.
The test system of data set [12] is Mus musculus. Briefly: Protection against hyperglycemia-induced liver injury in db/db mouse assessed as reduction in serum ALT level at 10 to 20 mg/kg, po administered every other day for 10 weeks measured post last dose. Format: functional, organism-based.
Data set [13] in a line: Cmax in Sprague-Dawley rat at 20 mg/kg, ig administered as single dose by UPLC/MS/MS analysis. Format: ADME, organism-based. Also noted: dose 20 mg/kg, route […]. As to conditions: in vivo, po.
Data set [14] can be described thus: AUC (0 to t) in Sprague-Dawley rat at 20 mg/kg, ig administered as single dose by UPLC/MS/MS analysis. Particulars: in vivo, po. Type of data set: ADME, organism-based.
The subject of data set [15] is Mus musculus. The data set is described as follows: Protection against hyperglycemia-induced liver injury in db/db mouse assessed as reduction in steatosis at 10 to 20 mg/kg, po administered every other day for 10 weeks measured post last dose by hematoxylin and eosin staining based light microscopic analysis. Type of data set: functional, organism-based.
Data set [16] addresses T1, Tyrosine-protein phosphatase non-receptor type 1 (Homo sapiens). The data set is described as follows: (§1) Inhibition of recombinant human PTP1B using pNPP as substrate measured after 30 mins.
The target of data set [17] is T2, Tyrosine-protein phosphatase non-receptor type 1 (Homo sapiens, UniProt P18031).
T2 sequence (P18031 whole entry): T1 sequence (whole entry)
Described as §1. Particulars: read-out: IC50.

Data set [18] is described as follows: Apparent half-life of the terminal disposition phase in Sprague-Dawley rat at 20 mg/kg, ig administered as single dose by UPLC/MS/MS analysis. Particulars: in vivo, po, read-out: t1/2 lambda z (converted). Type of data set: ADME, organism-based.
Data set [19] can be described thus: Tmax in Sprague-Dawley rat at 2 mg/kg, iv administered as single dose by UPLC/MS/MS analysis. Format: ADME, organism-based. Particulars: in vivo.
The nature of data set [20]: Apparent half-life of the terminal disposition phase in Sprague-Dawley rat at 2 mg/kg, iv administered as single dose by UPLC/MS/MS analysis. Type of data set: ADME, organism-based. Particulars: in vivo, read-out: t1/2 lambda z (converted).
Data set [21] can be described thus: AUC (0 to t) in Sprague-Dawley rat at 2 mg/kg, iv administered as single dose by UPLC/MS/MS analysis. As to conditions: in vivo. Format: ADME, organism-based.
Data set [22] addresses T1, Tyrosine-protein phosphatase non-receptor type 1 (Homo sapiens). Briefly: Potency index, ratio of […] IC50 to test compound IC50 for recombinant human PTP1B.

Broadly, the Cmax is the maximum level reached in the sampled fluid or tissue. Broadly, the AUC(0-inf) is total exposure, with the tail of the curve extrapolated. What is called AUC is concentration integrated over time. High values mean more exposure, low ones less exposure. The Tmax is the time from dosing to the highest level. One may read the AUC(0-t) as exposure summed from dosing to a finite time, without extrapolation to infinity. Low readings indicate less exposure, high ones more exposure. The term IC50 denotes the concentration at which inhibition is half-maximal. `C=CCc1cc(/C=C/C(=O)c2cccc(N(C)C)c2)c(OC)cc1O`: the inhibition entry in data set [1] and in data set [6] was “Active” each time. Also, the result with Mus musculus [2], in the data set with Mus musculus [4], with Mus musculus [8], in the data set on Mus musculus [10], with Mus musculus [12] and in the data set on Mus musculus [15] was Active. Further, the Drug uptake result in data set [3] is listed as “Active”. Moreover, the values for the Cmax in data set [5] and in data set [13] were 2150 ng/mL and 46.2 ng/mL, respectively. In data set [7], the AUC(0-inf) is 1620 ng·h/mL. This compound yielded an AUC in data set [9] of 605.52 ng·h/mL. The figures for the Tmax in data set [11] and in data set [19] were 14 h and 4.8 min, respectively. In addition, the AUC(0-t) in [14] amounted to 584 ng·h/mL; in data set [21], 1430 ng·h/mL. Also, in [16], the inhibition result was “Dose-dependent effect”. Further, the IC50 in [17] came to 570 nM. Besides, the half-life in [18] is 8.85 h; in data set [20], 21.1 h. Moreover, the Ratio IC50 in [22] was 6.
